Measured values taken from patent US6632924B2, “Method of measuring plasma membrane targeting of GLUT4” (Whitehead Institute for Biomedical Research, priority 1999, dated 2003).

Columns and labels:
[1] = tested on: GLUT4 reporter in CHO cells; assay: Flow cytometry assay of GLUT4 reporter translocation to the plasma membrane in CHO cells; format: cell-based, Chinese hamster
Description: CHO-K1 cells stably expressing the murine ecotropic retroviral receptor were kindly provided by David Hirsch, Roger Lawrence, and Monty Kreiger (Massachusetts Institute of Technology, Cambridge Mass.), and were maintained in Han's F-12 medium with 10% fetal bovine serum, 2 mM glutamine, 100 U/ml penicillin, and 0.1 mg/ml streptomycin (Baker, B. W., et al., (1992)). To use identical experimental conditions in CHO and 3T3-L1 cells, CHO cells were placed in the same medium used for 3T3-L1 adipocytes two days before assays of GLUT4 trafficking. Phoenix ecotropic retroviral packaging cells were a gift from Garry Nolan (Stanford University Medical Center) and VE23 ecotropic retroviral packaging cells were a gift from Merav Socolovsky (Whitehead Institute, Cambridge Mass.) (Kinsella, and Nolan, Hum Gene Ther. 7:1405-1413 (1996); Socolovsky, M., et al. J Biol Chem. 272:14009-14012 (1997)). Both retroviral packaging cell lines were cultured in DMEM, 10% fetal bovine serum, glutamine, penicillin and streptomycin as above.
(§1) Confluent cells were reseeded on the indicated day of differentiation to six well plates (Coming, Costar #3506) one day before use in experiments, and were starved in DMEM without fetal bovine serum for at least 3 hours before insulin stimulation. Insulin was used at 80 nM or 160 nM; no difference was noted between these concentrations in either 3T3-L1 or CHO cells. After treatment in the presence or absence of insulin for the times indicated in each figure, cells were quickly transferred to 4° C. and washed with cold phosphate buffered saline containing 0.9 mM Ca^++ and 0.5 mM Mg^++ (PBS++). All subsequent steps were carried out at 4° C., and staining of externalized myc epitope was done on adherent cells. Cells were incubated with a 1:200 dilution of anti-myc (9E10) ascites in PBS++, 2% bovine serum albumin, 4% donkey serum for 1.5 hours. Cells were then washed twice in PBS++, for 5 min. each time. They were then incubated 45 min. in 12.5 µg/ml R-phycoerythrin conjugated donkey F(ab′)2 anti-mouse IgG secondary antibody, diluted in PBS++, 2% BSA, 4% donkey serum. Cells were washed three times with PBS++, for 10 min. each time, and were resuspended by gentle scraping in PBS++, 2% BSA for flow cytometry. For experiments involving insulin removal, cells were chilled as above after insulin stimulation, then washed twice with 5 mM sodium acetate, 150 mM NaCl, pH 4.0 (Yang, J., et al., J Biol Chem. 267:1039310399 (1992); Kao, A. W., et al., J Biol Chem. 273:25450-25457 (1998)). Cells were rewarmed in 37° C. DMEM for the times indicated, restimulated or not with insulin, and then returned to 4° C. and chilled with cold PBS++ before staining as above.
Flow cytometry was done on FACScan or FACSCalibur cytometers (Becton-Dickinson). Appropriate compensation between the FL1 and FL2 channels was set using uninfected (GFP-negative) cells or cells stained with PE only (e.g. using a PE-conjugated anti-transferrin receptor antibody; Pharmingen). […] For each sample, data from ≧10,000 cells were collected. Median fluorescence intensities were used for quantitation, since this measure of central tendency is least sensitive to outliers. For each sample, the PE and GFP fluorescence specifically attributable to the presence of the GLUT4 reporter were determined by subtracting background fluorescences, measured using control unstained cells and cells not expressing the reporter, respectively.
Whether this recycling mechanism is present in an unrelated cell type was also assessed. This was done by infecting Chinese Hamster Ovary (CHO) cells expressing the murine ecotropic retroviral receptor with a retrovirus carrying the GLUT4 reporter, and using FACS to isolate cells falling within a narrow range of GFP fluorescence intensities. CHO cells are smaller and have less autofluorescence than 3T3-L1 adipocytes or fibroblasts. […]

GLUT4 in adipocytes = details: ≦10% in the absence of insulin; cited from earlier work
[2] = tested on: GLUT4myc-GFP in 3T3-L1 adipocytes; assay: Time-lapse video fluorescence microscopy of GLUT4myc-GFP in 3T3-L1 adipocytes; format: cell-based, murine; details: 3T3-L1 adipocyte; 2.5, 5 and 10 minutes after insulin
Description: Time lapse video fluorescence microscopy was performed using a Nikon Diaphot 300 inverted microscope as described (Smith, G. A., et al., J Cell Biol. 135:647-660 (1996)). 3T3-L1 adipocytes expressing GLUT4myc-GFP were reseeded to 25 mm round coverslips and were incubated in serum-free DMEM for at least three hours before microscopy. Cells were maintained at 37° C. during microscopy using an aluminum chamber mounted on the stage and connected to a circulating waterbath. Images were acquired every 15 sec using a Hammamatsu CCD camera and Metamorph software (Universal Imaging Corp., West Chester, Pa.).
The GLUT4 reporter in a murine retroviral vector was used to infect 3T3-L1 fibroblasts. The infected cells underwent normal adipose differentiation (see below), and we took several approaches to confirm that the GLUT4 reporter traffics appropriately. […] In the absence of insulin, GFP fluorescence is present in the perinuclear pattern that is characteristic of GLUT4, as well as in punctate structures near the plasma membrane and throughout the cytoplasm. Lipid droplets are present in the cytoplasm, and are seen as discrete areas of reduced fluorescence intensity.

[3] = tested on: GLUT4 reporter (GLUT4myc7-GFP) in 3T3-L1 cells; assay: Flow cytometry assay of GLUT4 reporter translocation to the plasma membrane in 3T3-L1 cells; format: cell-based, murine; details: for fold increase in the proportion of total GLUT4 present at the cell surface: insulin 80 nM
Description: A GLUT4 translocation assay was carried out as follows: 3T3 L1 preadipocytes were infected with a retrovirus encoding a GLUT4 construct fused to green fluorescent protein (GFP) at its carboxy terminus, and containing seven myc epitope tags in the first exofacial loop. A population of cells expressing a narrow window of green fluorescence was isolated by fluorescence activated cell sorting (FACS). These cells were propagated and differentiated on 10 cm plates, and were reseeded on 6-well dishes the day prior to performing the GLUT4 translocation assay. Cells were serum starved for 3 hours, then stimulated or not with 160 nM insulin for 10 minutes. They were then placed on ice and washed with cold phosphate buffered saline with calcium and magnesium (PBS++). All subsequent steps were done at 4° C. Cells were incubated with anti-myc antibody (9E10), washed briefly with PBS++, and incubated with phycoerythrin-conjugated F(ab)2 antimouse IgG. Cells were washed with PBS++, resuspended using EDTA, and analysed by two color flow cytometry.
One protocol for carrying out the method of assessing translocation of modified GLUT4 is as follows: 3T3L1 cells are maintained at a subconfluent density, infected with retrovirus expression vectors which include DNA encoding modified GLUT4 and induced to differentiate into adipocytes. After being cultured (e.g., for 8-12 days) under appropriate conditions, the cells are reseeded onto plates (e.g., 6-well plates) and serum starved (e.g., for 3 or more hours). Some cells are stimulated by insulin (e.g., 160 nM, 10 minutes), placed on ice and washed at 4° C. with PBS++ (phosphate buffered saline containing calcium and magnesium). Anti-myc antibody (9E10, available from the American Type Culture Collection) is added to the cells ([…], 1 ½ hours, 4° C.). The cells are again washed with PBS++ at 4° C. and an […] labeled with a red fluorophore (R-phycoerythrin (R-PE) conjugated antimouse IgG, 50 μg/ml, 45 minutes, 4° C.) is added. Another washing with PBS++(4° C.) is carried out, the cells are suspended with EDTA and FACS (fluorescences activated cell scanning/sorting) is carried out.
as §1, with “For experiments involving insulin removal, cells were chilled as above after insulin stimulation, then washed twice with 5 mM sodium acetate, 150 mM NaCl, pH 4.0 (Yang, J., et al., J Biol Chem. 267:1039310399 (1992); Kao, A. W., et al., J Biol Chem. 273:25450-25457 (1998)). Cells were rewarmed in 37° C. DMEM for the times indicated, restimulated or not with insulin, and then returned to 4° C. and chilled with cold PBS++ before staining as above.” left out

[4] = CHO cells in DMEM, 80 nM insulin

insulin
difference in response between 80 nM and 160 nM insulin ([1]; CHO cells): no difference
kinetics of GLUT4 redistribution after insulin addition ([1]; CHO cells cultured in DME medium (25 mM glucose), 80 nM insulin): biphasic kinetics
kinetics of GLUT4 externalization after insulin addition ([1]; CHO cells cultured in F12 medium (10 mM glucose), 80 nM insulin): essentially monophasic response
time of peak GLUT4 externalization after insulin addition [1, 4]: four to five
time to steady state of cell-surface GLUT4 after insulin addition [1, 4]: twenty
peak fold increase in the proportion of GLUT4 at the cell surface versus unstimulated cells ([1]; CHO cells in DMEM, 80 nM insulin, 5 minutes after addition): 5.5 fold
part of the peak increase in cell-surface GLUT4 eliminated in the subsequent decrease ([1]; CHO cells, several experiments): 50% to 60%
fold increase in the proportion of total GLUT4 present at the cell surface ([1]; confluent CHO cells, insulin 80 nM, 8 min): 3.5 fold
proportion of GLUT4 at the cell surface in the presence of insulin (GLUT4 in adipocytes): approximately 50%
distribution of GFP fluorescence after insulin addition [2]: redistribution of fluorescence to the plasma membrane
fold increase in the proportion of total GLUT4 present at the cell surface ([3]; 3T3-L1 adipocytes, 10 min): 5.0 fold
difference in response between 80 nM and 160 nM insulin ([3]; 3T3-L1 cells): no difference
fall of the fraction of GLUT4 on the plasma membrane after the peak ([3]; all stages of 3T3-L1 differentiation, 80 nM insulin): 30% to 40%
fold increase in the proportion of total GLUT4 present at the cell surface ([3]; confluent 3T3-L1 fibroblasts, 5 min): 4.4 fold
average maximal increase in the proportion of GLUT4 at the cell surface ([3]; mature (Day 8 and 10) 3T3-L1 adipocytes, 80 nM insulin): 5.4 fold
